Where two headings read alike, the source gives them in different places.
Legend:
IMR90 cells [1] = test: In vitro screening of the 14 in silico-selected compounds, surviving cell count, proliferating vs senescent IMR90; format: cell-based, Homo sapiens; settings: 48 h; for effect on non-senescent IMR90 cells: PD15-PD17, 1 μM; for senolytic activity on senescent IMR90 cells: PD19-PD21, 1 μM
Excerpt: (§1) IMR90 and WI38 lung fibroblasts were purchased from ECACC‐Merck. Human bone marrow (BM)‐derived mesenchymal stromal cells (MSCs) were purchased from Lonza. Human umbilical vein endothelial cells (HUVECs) are primary cells obtained from a pool of donors purchased from Clonetics (Lonza). Murine ear fibroblasts (MearFs) were obtained from C57BL/6J mice maintained in the INRCA “Specific Pathogen Free” (SPF) animal facility. MCF7 breast cancer cells were purchased from ATCC. For dose–response curves, IMR90 and WI38 were induced to senescence through replicative passages; MSCs, HUVECs, and MearFs senescence was induced with Doxorubicin; MCF7 senescence was induced with 4‐Hydroxytamoxifen (Lee et al. [2014]). The EC50 was calculated using GraphPad Prism 10 software. All treatment specifications are reported in the extended section.
(§2) Cell culture and treatment. IMR90 cells (Homo sapiens, fetal lung, fibroblast) and WI38 cells (Homo sapiens, fetal lung, fibroblast) were purchased from ECACC-Merck (Merck, Darmstadt, Germany) and cultured in MEM medium (Euroclone, Milano, Italy) supplemented with 1% L-Glutamine (Euroclone, Milano, Italy), 1% Penicillin-Streptomycin (Euroclone, Milano, Italy), and 10% Fetal Bovine Serum (FBS, Euroclone, Milano, Italy), at 37°C, 5% CO2. IMR90 cells with a population doubling (PD) from PD15 to PD23 were used; cells were considered incrementally senescent from passage PD19 to passage PD23. WI38 cells were used from PD26 to PD53. Cells were considered incrementally senescent from passage PD49 to passage PD53. For the compounds in vitro screening, IMR90 cells with passages from PD15 to PD23 were tested at increasing concentrations of 0.5 μM, 1 μM, 10 μM, and 25 μM over 24 and 48 h to evaluate the compounds' efficacy and cytotoxicity compared to the Vehicle (DMSO ≤ 0.1%). Cells were counted manually, in triplicate, using Trypan blue reagent (Euroclone) and disposable Bürker chambers. […] K5 dose-response proliferation curves were performed with compound K5 (Molport, SIA, Riga, Latvia) in concentrations 0.1, 0.5, 1, 5, 10, 50, 100, and 200 μM for 48 h. Cells were counted using a Trypan blue reagent and EVAplus cell counter. The EC50s were calculated by analyzing the data using GraphPad Prism 10 software.

IMR90 cells [2] = test: Dose-response curves on proliferating and replicative senescent IMR90 (Trypan blue cell count); format: cell-based
Excerpt: as §1, §2
MCF7 cell line (ATCC; HTB-22, Homo sapiens, breast cancer) was purchased from ATCC; cells were grown in MEM medium (Corning, New York, USA, #15-010-CVR) supplemented with 10% FBS (Gibco, Invitrogen, Carlsbad, CA, USA, #10270106), 1% glutamine (Corning #25005-CI), 1% penicillin and streptomycin (Corning #30002-CI). Cells were incubated at 37 °C with 5% CO2. Senescent status induction: MCF7 were plated 24 h before the treatment with 4-Hydroxytamoxifen (TAM) 10 μM to induce the senescence described by (Lee et al. 2014). Control cultures were treated with equal volumes of 75% ethanol as the vehicle. The treatment with TAM lasts 96 h, after which the cells have been washed and treated with the senolytic drugs K5 10 µM for another 96 h. The treatment with the senolytic compounds has been renewed at 48 h. Cell mortality and vitality curves after treatment with K5 (10 μM, orange) or Vehicle (DMSO, grey) were monitored using the Incucyte live-cell Analysis system (Sartorius, Goettingen, Germany). The estimated Senolytic index (SI) was calculated as the ratio between the EC50 in proliferating cells and the EC50 in senescent cells, extrapolated using GraphPad Prism 10 software.

IMR90 cells [3] = test: as above; format: cell-based; settings: proliferating IMR90 (PD14), 48 h
IMR90 cells [4] = test: Immunofluorescence of Cytochrome C / mitochondria colocalization in senescent IMR90; format: cell-based, Homo sapiens; settings: senescent IMR90 (PD21), 48 h, K5 25 μM, Dasatinib 1 μM; Vehicle OR = 0.913
Protocol: (§3) Treated/untreated senescent IMR90 and MCF7 cells were fixed, permeabilized, and stained following suppliers' recommendations. Images were acquired using an Olympus IX83 research inverted microscope (IF) and a phase microscopy Nikon ECLIPSE Ei R (IHC) at 40× MAG.
(§4) Immunofluorescence staining. Treated/untreated IMR90 and MCF7 cells were cultured in LabTek II chamber slides (Nunc, Biosigma). At the final time point, cells were stained with 500 nM MitoTracker Orange (Thermo Fisher Scientific) for 30 min at 37°C and then fixed in 4% PFA (Merck) for 10 min, RT, and permeabilized with 0.1% Triton solution (Merck) for 30 min at RT. Samples were blocked in 5% BSA for 90 min, incubated overnight at 4°C with primary antibody against Cytochrome C (1:50, RbMAb, Abcam), and 1h at RT with secondary antibody Alexa Fluor 488 goat anti-Rb (1:200, Thermo Fisher Scientific). Nuclei were stained with DAPI (Cell Signaling) for 10 min at RT, and ProLong Glass Antifade Mountant (Thermo Fisher Scientific) was used to seal coverslips. Images were acquired using an Olympus IX83 research inverted microscope at 40X magnifications.

MCF7 cells = test: Immunofluorescence of Cytochrome C / mitochondria colocalization in senescent MCF7; format: cell-based, Homo sapiens; settings: MCF7, TAM 10 µM 96 h, then 72 h K5 10 µM or Dasatinib 1 µM
Protocol: as §3, §4

HSP90α [5] = molecular target: T1, HSP90α (Homo sapiens, UniProt P07900); test: HSP90 N-Terminal Domain Assay Kit, fluorescence polarization competition with FITC-Geldanamycin; format: binding; set-up: purchased BPS Bioscience 50293; settings: dose-response 1 pM to 10 μM, n = 3, extrapolated with GraphPad Prism; read-out: HSP90α inhibition IC50
Protocol: HSP90‐directed inhibitory activity was assessed employing the HSP90 N‐Terminal Domain Assay Kit (BPS Bioscience) according to the manufacturer's instructions. The fluorescence intensity was measured with a multiplate reader (Victor Nivo‐Perkin Elmer). The IC50 was calculated by analyzing the data using GraphPad Prism 10 software.
HSP90 inhibition activity assay. […] […] […] Data are the percentage of residual enzyme activity relative to the solvent (DMSO). The IC50s were calculated by analyzing the data using GraphPad Prism 10 software.

HSP90α [6] = molecular target: T1, HSP90α; test: Cellular thermal shift assay (CETSA) on cellular lysates, HSP90α; settings: 46°C, compound 0.5 mM
Protocol: Cellular Thermal Shift Assay (CETSA). […] Briefly, the cellular extract was lysed in RIPA buffer (10 mM Tris-HCl pH 7.4, 250 mM NaCl, 1% NP40/IGEPAL, 1% DOC, 0.01% SDS, 0.01% Glycerol, supplemented with protease/phosphatase inhibitor, PI/PhI mix and 2 mM DTT) and protein concentration was determined by a BCA kit (Pierce, Life Technologies, TFS, Waltham, MA, USA). Samples were homogenized by 3 cycles of freeze-thawing using liquid nitrogen and centrifuged at 13000 rpm at 4 °C for 30 min to separate the soluble fraction from the debris.
Following the supplier's recommendations, samples were loaded into the proper cartridge (12- 230 kDa Wes/Jess Separation Modules, ProteinSimple, Biotechne, Minneapolis, MN, USA). HSP90α (1:50, MsMAb, Abcam), HSP90β (1:50, RbMAb, Abcam), GRP94 (1:50, RbMAb, Abcam), TRAP1 (1:50, MsMAb, Abcam), α-Tubulin (1:500, MsMAb, Abcam), and β-Actin (1:500, RbMAb, Abcam) were used as primary antibodies. Secondary antibodies were Anti-Mouse Secondary HRP and Anti-Rabbit Secondary HRP (ProteinSimple, Biotechne, Minneapolis, MN, USA).

CC(C)c1cc(-c2n[nH]c(=O)n2-c2ccc3c(ccn3C)c2)c(O)cc1O [Ganetespib]
effect on non-senescent IMR90 cells (IMR90 cells [1]): cytotoxic effects also visible in non | EC50 (IMR90 cells [2]; Homo sapiens, IMR-90, IMR90, Replicative/passages, read-out: EC50 senescent cells): 87 nM | EC50 (IMR90 cells [2]; Homo sapiens, IMR-90, IMR90, read-out: EC50 proliferating cells): 1000 nM | Senolytic evidence (no, partly/yes) (IMR90 cells [2]; IMR90, Replicative/passages): Yes | EC50 (IMR90 cells [3]; Homo sapiens, IMR-90): 1040 nM

O=S(=O)(NCc1ccc(-c2ccc(F)cc2F)o1)c1ccccc1 [Compound C2, N-{[5-(2,4-difluorophenyl)furan-2-yl]methyl}benzenesulfonamide]
senolytic activity on senescent IMR90 cells (IMR90 cells [1]): evident senolytic activity

Cc1[nH]nc(-c2ccc(O)cc2O)c1Oc1ccc(F)cc1 [Compound B2, 4-[4-(4-fluorophenoxy)-5-methyl-1H-pyrazol-3-yl]benzene-1,3-diol]
senolytic activity on senescent IMR90 cells (IMR90 cells [1]): evident senolytic activity

Cc1nc(Nc2ncc(C(=O)Nc3c(C)cccc3Cl)s2)cc(N2CCN(CCO)CC2)n1 [Dasatinib, reference compound]
Cytochrome C / mitochondria colocalization, Overlap R (OR) (IMR90 cells [4]): 0.639 | Cytochrome C / mitochondria colocalization, Overlap R (OR) (MCF7 cells; TAM + Vehicle OR = 0.978): 0.956 | Cytochrome C / mitochondria colocalization, Pearson's Rr (PRr) (MCF7 cells; TAM + Vehicle PRr = 0.961): 0.928

CO[C@H]1/C=C\C=C(/C)C(=O)NC2=CC(=O)C(NCCN(C)C)=C(C[C@@H](C)C[C@H](OC)[C@H](O)[C@@H](C)/C=C(\C)[C@@H]1OC(N)=O)C2=O [Compound 17-DMAG]
effect on non-senescent IMR90 cells (IMR90 cells [1]): cytotoxic effects also visible in non | Senolytic evidence (no, partly/yes) (IMR90 cells [2]; IMR90, Replicative/passages): Yes | EC50 (IMR90 cells [2]; IMR90, Replicative/passages, read-out: EC50 senescent cells): 85 nM | EC50 (IMR90 cells [2]; IMR90, read-out: EC50 proliferating cells): 780 nM | EC50 (IMR90 cells [3]): 785 nM

Cn1c(=O)c2c(ncn2C)n(C)c1=O [Caffeine, reference compound]
IC50 (HSP90α [5]): > 300000 nM | interaction / stabilization of HSP90α in CETSA (HSP90α [6]): does not interact with the protein

From publication PMC12266748, “A Xanthine Derivative With Novel Heat Shock Protein 90‐Alpha Inhibitory and Senolytic Properties” (Aging Cell, 2025)
